Source: ChEMBL document CHEMBL4007425, “Drug Repurposing of Histone Deacetylase Inhibitors That Alleviate Neutrophilic Inflammation in Acute Lung Injury and Idiopathic Pulmonary Fibrosis via Inhibiting Leukotriene A4 Hydrolase and Blocking LTB4 Biosynthesis” (J Med Chem, 2017)
Calls of active or inactive are those of the source. The rule behind the calls is not given here.

Assays:
[1] = target: T1, Leukotriene A-4 hydrolase (Homo sapiens, UniProt P09960); test: Inhibition of recombinant human LTA4H aminopeptidase activity expressed in Escherichia coli BL21 (DE3) pLysS assessed as formation of p-NA from Ala-p-NA preincubated for 10 mins followed by substrate addition measured after 10 mins; assay type: ADME
T1 sequence (P09960 whole entry): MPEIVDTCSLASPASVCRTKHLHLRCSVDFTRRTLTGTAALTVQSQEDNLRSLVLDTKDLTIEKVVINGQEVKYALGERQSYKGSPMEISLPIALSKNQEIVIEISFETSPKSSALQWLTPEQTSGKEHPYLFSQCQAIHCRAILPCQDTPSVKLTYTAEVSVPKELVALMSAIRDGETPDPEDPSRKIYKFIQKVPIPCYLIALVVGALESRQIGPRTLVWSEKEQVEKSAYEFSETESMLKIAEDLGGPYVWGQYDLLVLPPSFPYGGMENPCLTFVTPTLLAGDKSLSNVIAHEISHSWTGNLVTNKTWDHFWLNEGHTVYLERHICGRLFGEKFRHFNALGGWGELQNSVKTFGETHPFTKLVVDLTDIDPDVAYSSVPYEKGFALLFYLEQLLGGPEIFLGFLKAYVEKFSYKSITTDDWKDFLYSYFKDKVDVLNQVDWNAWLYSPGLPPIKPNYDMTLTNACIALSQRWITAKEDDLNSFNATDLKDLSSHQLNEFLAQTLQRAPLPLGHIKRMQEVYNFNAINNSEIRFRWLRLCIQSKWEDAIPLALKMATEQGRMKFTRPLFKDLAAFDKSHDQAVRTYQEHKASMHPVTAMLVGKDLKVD

[2] = target: T1, Leukotriene A-4 hydrolase; test: Inhibition of recombinant human LTA4H Epoxide Hydrolase expressed in Escherichia coli BL21 (DE3) pLysS preincubated for 10 mins followed by addition of LTA4 as substrate measured after 15 mins by reverse-phase HPLC analysis
[3] = target: T2, Leukotriene A-4 hydrolase (Homo sapiens) (UniProt P09960); details: at 10 µM
T2 sequence (whole entry): T1 sequence (P09960 whole entry)
Description: Inhibition of recombinant human LTA4H Epoxide Hydrolase expressed in Escherichia coli BL21 (DE3) pLysS at 10 uM preincubated for 10 mins followed by addition of LTA4 as substrate measured after 15 mins by reverse-phase HPLC analysis

[4] = target: T2, Leukotriene A-4 hydrolase (Homo sapiens)
Description: Binding affinity to recombinant human LTA4H hydrolase assessed as change in melting temperature at 50 uM by SYPRO orange dye-based thermofluor assay

[5] = target: T3, Leukotriene A-4 hydrolase (LTA4H) aminopeptidase activity (Homo sapiens, UniProt P09960); test: Inhibition of recombinant human LTA4H aminopeptidase activity expressed in Escherichia coli BL21 (DE3) pLysS assessed as formation of p-NA from Ala-p-NA at 10 uM preincubated for 10 mins followed by substrate addition measured after 10 mins
T3 sequence (P09960 whole entry): T1 sequence (P09960 whole entry)

Mus musculus [6] = test: Anti-inflammatory activity in LPS-induced C57BL/6 mouse model of acute lung injury assessed as reduction in pathological changes at 25 mg/kg, ip and co-treated with ((2S,3R)-3-amino-2-hydroxy-4-phenylbutanamido)-4-methylpentanoic acid pretreated for 1 hr followed LPS challenge measured after 24 hrs by hematoxylin and eosin staining based microscopy; assay type: functional, organism-based
Mus musculus [7] = species on record: Mus musculus; details: C57BL/6, at 25 mg/kg
Description: Inhibition of LTB4 biosynthesis in LPS-induced C57BL/6 mouse model of acute lung injury BLAF at 25 mg/kg, ip by ELISA

[8] = target: T2, Leukotriene A-4 hydrolase (Homo sapiens); details: 10 uM
Mus musculus [9] = test: Anti-inflammatory activity in BLM-induced C57BL/6 mouse model of acute lung neutrophilic inflammation assessed as reduction in number of neutrophils in BALF at 30 mg/kg, ip qd for 7 days post BLM challenge measured on day 7; assay type: functional, organism-based

Row | IC50 [1] | IC50 [2] | inhibition [3] | ΔTm [4] | inhibition at 10 min, 10 µM [5] | inhibition at 10 min, 10 µM ([5]; probe Ala-p-NA) | SMILES | Activity (Mus musculus [6]) | inhibition (Mus musculus [7]) | ΔTm [8] | Activity (Mus musculus [9])
1 | 4.4 µM | > 10 µM | > 50% | -0.68 °C | > 50% |  | O=C(CCCCCN1C(=O)c2cccc3cccc(c23)C1=O)NO |  |  |  | 
2 | > 10 µM | > 10 µM | > 50% | 0.39 °C |  | > 50% | Nc1ccccc1NC(=O)c1ccc(CNC(=O)OCc2cccnc2)cc1 [ENTINOSTAT] |  |  |  | 
3 | > 10 µM | > 10 µM | > 50% | -0.33 °C |  | > 50% | Nc1ccccc1NC(=O)c1ccc(CNc2nccc(-c3cccnc3)n2)cc1 [MOCETINOSTAT] |  |  |  | 
4 | > 10 µM | > 10 µM | > 50% | 0.12 °C |  | > 50% | Cc1[nH]c2ccccc2c1CCNCc1ccc(/C=C/C(=O)NO)cc1 [PANOBINOSTAT] |  |  |  | 
5 | > 10 µM | > 10 µM | > 50% | 0.52 °C |  | > 50% | Cn1cc(CNCC2CCN(c3ncc(C(=O)NO)cn3)CC2)c2ccccc21 [QUISINOSTAT] |  |  |  | 
6 | > 10 µM | > 10 µM | > 50% | 0.44 °C |  | > 50% | CN(C)Cc1ccc(S(=O)(=O)n2ccc(/C=C/C(=O)NO)c2)cc1 [RESMINOSTAT] |  |  |  | 
7 | > 10 µM | > 10 µM | > 50% | 0.34 °C |  | > 50% | O=C(CCCCCCC(=O)Nc1ccc([C@H]2O[C@@H](CSc3nc(-c4ccccc4)c(-c4ccccc4)o3)C[C@@H](c3ccc(CO)cc3)O2)cc1)NO [TUBACIN] |  |  |  | 

Continued, compound first:

Row | SMILES | IC50 [1] | IC50 [2] | inhibition [3] | ΔTm [4] | inhibition at 10 min, 10 µM [5] | inhibition at 10 min, 10 µM ([5]; probe Ala-p-NA) | Activity (Mus musculus [6]) | inhibition (Mus musculus [7]) | ΔTm [8] | Activity (Mus musculus [9])
8 | CC(C)C[C@H](NC(=O)[C@@H](O)[C@H](N)Cc1ccccc1)C(=O)O |  |  |  |  |  |  | Active | Active |  | 
9 | CN(CCCOc1ccc(Cc2ccccc2)cc1)CCC(=O)O |  |  |  |  |  |  |  |  | 2.95 °C | 
10 | COC(=O)c1ccc2c(c1)NC(=O)/C2=C(\Nc1ccc(N(C)C(=O)CN2CCN(C)CC2)cc1)c1ccccc1 |  |  |  |  |  |  |  |  |  | Active
11 | CN(C)Cc1c(C(=O)NCCOc2ccc(C(=O)NO)cc2)oc2ccccc12 [ABEXINOSTAT] | > 10 µM | > 10 µM | > 50% | 0.24 °C |  | > 50% |  |  |  | 
12 | O=C(/C=C/c1cccc(S(=O)(=O)Nc2ccccc2)c1)NO [BELINOSTAT] | > 10 µM | > 10 µM | > 50% | 0.11 °C |  | > 50% |  |  |  | 
13 | C#Cc1cccc(Nc2ncnc3cc(OC)c(OCCCCCCC(=O)NO)cc23)c1 [CUDC-101] | > 10 µM | > 10 µM | > 50% | 0.3 °C | > 50% |  |  |  |  | 
14 | CCN(CC)Cc1ccc2cc(COC(=O)Nc3ccc(C(=O)NO)cc3)ccc2c1 [GIVINOSTAT] | > 10 µM | > 10 µM | > 50% | 0.19 °C |  | > 50% |  |  |  | 
15 | CCCCc1nc2cc(/C=C/C(=O)NO)ccc2n1CCN(CC)CC [PRACINOSTAT] | > 10 µM | > 10 µM | > 50% | 0.31 °C | > 50% |  |  |  |  | 
16 | O=C(CCCCCCNC(=O)c1cnc(N(c2ccccc2)c2ccccc2)nc1)NO [RICOLINOSTAT] | > 10 µM | > 10 µM | > 50% | 0.55 °C |  | > 50% |  |  |  | 
17 | CC(/C=C/C(=O)NO)=C\[C@@H](C)C(=O)c1ccc(N(C)C)cc1 [TRICHOSTATIN] | > 10 µM | > 10 µM | > 50% | 0.17 °C |  | > 50% |  |  |  | 
18 | CCCC(CCC)C(=O)O [VALPROATE SODIUM] | > 10 µM | > 10 µM | > 50% | 0.36 °C |  | > 50% |  |  |  | 
